Test results reported in the Deep4Chem optical property database.
Where “and” joins values, the source holds several entries; their conditions need not be identical. Identical values can stand only once.

Experiment: solvent given as SMILES
[1] = in c1cc(-n2c3ccccc3c3ccccc32)cc(-n2c3ccccc3c3ccccc32)c1

With `N#Cc1cc2ccccc2[nH]1` the emission maximum (in C1CCOC1) was 328 nm, the emission maximum (in C1COCCO1) was 329 nm and the emission maximum (in CC#N) was 330 nm. For the same compound, the emission maximum (in CC(C)O) was 332 nm, the emission maximum (in CCO) was 334 nm and the emission maximum (in CO) was 335 nm. For the same compound, the emission maximum (in CS(C)=O) was 335 nm, the emission maximum (in O) was 350 nm and the emission maximum (in OCC(F)(F)F) was 339 nm.
`CC(C)(C)c1ccc2c(c1)c1cc(C(C)(C)C)ccc1n2-c1ccc(-n2c3ccc(C(C)(C)C)cc3c3cc(C(C)(C)C)ccc32)c(C(=O)c2ccncc2)c1` showed an emission maximum (in C1CCOC1) of 519.49 nm, an emission maximum (in CCCCCC) of 476.84 nm and an emission maximum (in Cc1ccccc1) of 508 nm. The emission maximum (in ClCCl) was 561.4 nm.
With `Nc1ccc2ccc([O-])cc2c1` the emission maximum (in O) was 407 nm.
Compound `CCN(CC)c1ccc2cc(-c3nc4cc(C(=O)Nc5ccccc5)ccc4o3)c(=O)oc2c1` has an emission maximum (in ClCCl) of 495 nm.
`c1ccc(Cn2c3sccc3c3c4nsnc4c4c5ccsc5n(Cc5ccccc5)c4c32)cc1` gave an emission maximum (in Cc1ccccc1) of 508 nm and an emission maximum (in ClCCl) of 541 nm.
With `CN(C)c1ccc2c(-c3ccc(C(=O)[O-])cc3C(=O)[O-])c3ccc(=[N+](C)C)cc-3oc2c1` the emission maximum (in CCO) was 569 nm and the emission maximum (in O) was 578 nm.
For `Cc1ccc(C)c(C)c1`, the emission maximum (in C1CCCCC1) was 295.77 nm.
Work on `c1ccc2c(c1)Sc1ccccc1S2` yielded an emission maximum (in CC1CCCCC1) of 431 nm.
Compound `CCCCCCN1C(=O)c2cccc3c(-c4ccc(OC)s4)ccc(c23)C1=O` has an emission maximum (in ClC(Cl)Cl) of 503 nm.
`Cc1cccc2cc3c(=O)n(C)c(=O)n(C)c3nc12` showed an emission maximum (in CC#N) of 417 nm, an emission maximum (in CC(C)O) of 421 nm and an emission maximum (in CCO) of 423 nm. It also gave an emission maximum (in CO) of 425 nm, an emission maximum (in ClC(Cl)Cl) of 417 nm and an emission maximum (in ClCCl) of 417 nm.
`CC[N+]1(CC)CN2C(=N1)C(C(=O)O)=Cc1cc(OC)ccc12` showed an emission maximum (in O) of 491 nm.
`COc1ccc(-c2c3ccccc3c(-c3ccc(OC)cc3)c3cc4ccccc4cc23)cc1` gave an emission maximum (in ClCCl) of 511 nm.
With `C(#Cc1ccc2c(c1)c1cc(C#Cc3ccccc3)ccc1n2-c1cc2ccccc2c2ccccc12)c1ccccc1` the emission maximum (in ClCCl) was 392 nm.
Compound `Cc1cc(C)c(B(c2ccc(N3c4ccccc4Oc4ccccc43)cc2)c2c(C)cc(C)cc2C)c(C)c1` has an emission maximum (in C1CCCCC1) of 475.13 nm, an emission maximum (in C1CCOC1) of 602.56 nm and an emission maximum (in CN(C)C=O) of 665.64 nm. The emission maximum (in Cc1ccccc1) was 540 nm and the emission maximum (in ClCCl) was 598.46 nm.
In the case of `CCNc1cc2oc3c/c(=[NH+]\CC)c(C)cc-3c(-c3ccccc3C(=O)OCC)c2cc1C`, the emission maximum (in CC#N) is reported as 552 nm, the emission maximum (in CCO) is reported as 552 nm and the emission maximum (in CN(C)C=O) is reported as 532 nm. For the same compound, the emission maximum (in CO) was 555 nm and the emission maximum (in O) was 554 nm.
In the case of `CN(C)c1ccc(/C=C/c2cc[n+](C)cc2)cc1`, the emission maximum (in C1CCOC1) is reported as 590 nm, the emission maximum (in CC1COC(=O)O1) is reported as 600 nm and the emission maximum (in CC#N) is reported as 625 nm and 605 nm. It also gave an emission maximum (in CC(C)=O) of 602 nm, an emission maximum (in CC(C)O) of 591 nm and an emission maximum (in CCO) of 594 nm. The emission maximum (in CCOC(C)=O) was 595 nm, the emission maximum (in CN(C)C=O) was 596 nm and the emission maximum (in CO) was 596 nm. The emission maximum (in CS(C)=O) was 610 nm, the emission maximum (in ClC(Cl)Cl) was 585 nm and the emission maximum (in ClCCl) was 608 nm. For the same compound, the emission maximum (in O) was 624 nm and 597 nm and the emission maximum (in c1ccncc1) was 605 nm.
`F[B-]1(F)n2c(-c3ccccc3)c3ccc4ccccc4c3c2N=C2c3c(ccc4ccccc34)C(c3ccccc3)=[N+]21` showed an emission maximum (in ClCCl) of 753 nm.
For `CCOC(=O)c1c(-c2cc3ccccc3oc2=O)nn(-c2ccc(OC)cc2)c1C(=O)OCC`, the emission maximum (in ClCCl) was 457 nm.
For `F[B-]1(F)Oc2ccc3ccccc3c2-c2c3c(c4c([n+]21)CCc1ccccc1-4)CCc1ccccc1-3`, the emission maximum (in ClCCl) was 476 nm.
For `CC(=O)c1ccc(-c2cc(C)[o+]c(C)c2)cc1`, the emission maximum (in ClCCl) was 405 nm.
With `c1cc2ccc1-c1ccc(cc1)-c1sc(c3c1OCCO3)-c1ccc(cc1)-c1ccc(cc1)-c1sc(c3c1OCCO3)-c1ccc(cc1)-c1ccc(cc1)-c1sc-2c2c1OCCO2` the emission maximum (in C1CCOC1) was 555 nm.
In the case of `c1ccc2c(c1)c1ccccc1c1[nH]c(-c3ccc(-c4nc5c6ccccc6c6ccccc6c5[nH]4)cc3)nc21`, the emission maximum (in C1CCOC1) is reported as 456 nm, the emission maximum (in CC#N) is reported as 462 nm and the emission maximum (in CCO) is reported as 461 nm. It also gave an emission maximum (in CS(C)=O) of 430 nm and an emission maximum (in ClCCl) of 465 nm.
`CC1(C)OB(c2cc3ccc4cccc5ccc(c2)c3c45)OC1(C)C` gave an emission maximum (in Cc1ccccc1) of 386 nm.
For `CCCCc1cc2c3c(c1)-c1ccccc1B(c1c(C)cc(C)cc1C)N3B(c1c(C)cc(C)cc1C)c1ccccc1-2`, the emission maximum (in ClCCl) was 413 nm.
Compound `CN(C)c1ccc(-c2nc3cc(C(F)(F)F)ccc3n2-c2ccccc2)cc1` has an emission maximum (in CC#N) of 406 nm.
With `CC(C)(C)c1ccc2c(c1)c1cc(C(C)(C)C)ccc1n2-c1ccc(-c2ccc3c(c2)C2(c4cc(-c5ccc(-n6c7ccc(C(C)(C)C)cc7c7cc(C(C)(C)C)ccc76)cc5)ccc4-3)c3ccccc3S(=O)(=O)c3ccccc32)cc1` the emission maximum (in ClCCl) was 449 nm and the emission maximum [1] was 434 nm.
`CCN(CC)c1ccc([N+]2=Cc3ccc4c5c(ccc4c3O[B-]2(c2c(F)c(F)c(F)c(F)c2F)c2c(F)c(F)c(F)c(F)c2F)C=[N+](c2ccc(N(CC)CC)cc2)[B-](c2c(F)c(F)c(F)c(F)c2F)(c2c(F)c(F)c(F)c(F)c2F)O5)cc1` gave an emission maximum (in C1CCOC1) of 714 nm, an emission maximum (in Cc1ccccc1) of 644 nm and an emission maximum (in ClCCl) of 683 nm.
For `CC(C)[Si](C#Cc1c2nc3ccccc3nc2c(C#C[Si](C(C)C)(C(C)C)C(C)C)c2nc3ccccc3nc12)(C(C)C)C(C)C`, the emission maximum (in CCCCCC) was 694 nm.
`CCOC(=O)CCOc1ccccc1C(c1c(C)[nH]c2ccccc12)c1c(C)[nH]c2ccccc12` showed an emission maximum (in C1CCCCC1) of 329 nm, an emission maximum (in CC#N) of 340 nm and an emission maximum (in CO) of 345 nm. It also gave an emission maximum (in O) of 350 nm.
Work on `CCCCCC(=O)c1cccc2sc3c(c12)P(=O)(c1ccccc1)c1ccccc1-3` (stereo not given) yielded an emission maximum (in ClCCl) of 427 nm.
Compound `CC[N+](CC)=c1ccc2c(C(F)(F)F)c3c(oc-2c1)-c1ccc(N(C)C)cc1CC3` has an emission maximum (in CCO) of 425 nm, an emission maximum (in ClCCl) of 713 nm and an emission maximum (in O) of 716 nm.
For `CCn1c2ccccc2c2cc(-c3cc(-c4ccc5c(c4)c4ccccc4n5CC)nc(-c4ccccc4)n3)ccc21`, the emission maximum (in C1CCOC1) was 391 nm, the emission maximum (in CCOC(C)=O) was 389 nm and the emission maximum (in CN(C)C=O) was 415 nm. The emission maximum (in Cc1ccccc1) was 380 nm and the emission maximum (in ClCCl) was 405 nm.
For `CCN(CC)c1ccc(-c2nc3c(c4c2-c2ccccc2CC4)-c2ccccc2CC3)cc1`, the emission maximum (in C1CCOC1) was 452 nm, the emission maximum (in CC#N) was 463 nm and the emission maximum (in CCCCCC) was 425 nm. The emission maximum (in CCOC(C)=O) was 449 nm, the emission maximum (in CO) was 461 nm and the emission maximum (in CS(C)=O) was 470 nm. For the same compound, the emission maximum (in Cc1ccccc1) was 437 nm and the emission maximum (in ClCCl) was 449 nm.
`CC(C)(C)c1ccc(N(c2ccc(C(C)(C)C)cc2)c2ccc(S(=O)(=O)c3ccc(N(c4ccc(C(C)(C)C)cc4)c4ccc(C(C)(C)C)cc4)cc3)cc2)cc1` gave an emission maximum (in Cc1ccccc1) of 419 nm and an emission maximum (in O=P(c1ccccc1)(c1ccccc1)c1ccccc1Oc1ccccc1P(=O)(c1ccccc1)c1ccccc1) of 430 nm.
Compound `CC1=CC(C)=[N+]2C1=C(c1c3ccccc3c(C)c3ccccc13)c1c(C)cc(C)n1[B-]2(F)F` has an emission maximum (in CC#N) of 518 nm, an emission maximum (in CCCCCC) of 512 nm and an emission maximum (in CCO) of 516 nm. The emission maximum (in CN(C)C=O) was 519 nm, the emission maximum (in Cc1ccccc1) was 517 nm and the emission maximum (in ClCCl) was 519 nm.
For `COC(=O)C(NC(=O)CCNc1cccc2ccccc12)C(C)C` (stereo not given), the emission maximum (in CCO) was 415 nm.
For `Cc1c2c(c(C)c3ccccc13)-c1cc3nc4ccccc4nc3cc1-2`, the emission maximum (in ClC(Cl)Cl) was 454 nm.
Compound `Cc1cc(-c2ccccc2C)cc(C)[o+]1` has an emission maximum (in CC#N) of 518 nm and an emission maximum (in ClCCl) of 469 nm.
For `O=C1c2ccccc2-c2nc3ccccc3n21`, the emission maximum (in ClCCl) was 519 nm.
`CC1(C)CCc2c(c3ccccc3c3nc4ccccc4nc23)O1` showed an emission maximum (in C1CCCCC1) of 459.98 nm, an emission maximum (in C1CCOC1) of 483.09 nm and an emission maximum (in CN(C)C=O) of 501 nm. The emission maximum (in CO) was 510.99 nm, the emission maximum (in ClC(Cl)Cl) was 490.92 nm and the emission maximum (in c1ccccc1) was 471.03 nm.
With `CN1/C(=C/C=C(/C=C/C2=[N+](C)c3ccccc3C2(C)C)c2ccc(C(F)(F)F)cc2)C(C)(C)c2ccccc21` the emission maximum (in CCO) was 665 nm, the emission maximum (in CO) was 659 nm and the emission maximum (in CS(C)=O) was 665 nm. For the same compound, the emission maximum (in O) was 658 nm.
Compound `CCCCCCCCCCCCOc1ccc(C#Cc2ccc(C#Cc3ccc(OCCCCCCCCCCCC)c(OCCCCCCCCCCCC)c3)c3nc4c5ccccc5c5ccccc5c4nc23)cc1OCCCCCCCCCCCC` has an emission maximum (in C1CCOC1) of 558 nm, an emission maximum (in Cc1ccccc1) of 541 nm and an emission maximum (in ClCCl) of 566 nm.
`Cc1ccc(N2C(c3ccccc3N(C)C)=NC(c3ccccc3)C2c2ccccc2)cc1` (stereo not given) gave an emission maximum (in Cc1ccccc1) of 422 nm.
For `F[B-]1(F)n2c(Cl)ccc2C(c2c(Cl)cccc2Cl)=C2C=CC(NCc3ccccc3)=[N+]21`, the emission maximum (in CC#N) was 532 nm, the emission maximum (in CCCCCC) was 538 nm and the emission maximum (in CCOC(C)=O) was 532 nm. For the same compound, the emission maximum (in CO) was 531 nm and the emission maximum (in ClCCl) was 537 nm.
Compound `CCCCCCCCCCCCN1C(=O)c2ccc3c4ccc5c6c(ccc(c7ccc(c2c37)C1=O)c64)C(=O)NC5=O` has an emission maximum (in CN(C)C=O) of 535 nm.
Work on `C(=C\c1ccc(-c2cccc3ccccc23)s1)/c1cccs1` yielded an emission maximum (in ClCCl) of 453 nm.
In the case of `CCCCCCCCOc1ccc(C#Cc2c3cc4ccccc4cc3c(C#C[Si](C(C)C)(C(C)C)C(C)C)c3cc4ccccc4cc23)cc1`, the emission maximum (in ClCCl) is reported as 666 nm.
Compound `Cc1cc(C)c(B(c2ccsc2-c2sccc2P(=O)(c2ccccc2)c2ccccc2)c2c(C)cc(C)cc2C)c(C)c1` has an emission maximum (in CO) of 512 nm.
`N#Cc1cc(-c2ccc(N3c4ccccc4Oc4ccccc43)cc2)c(-c2ccc(N3c4ccccc4Oc4ccccc43)cc2)cc1C#N` showed an emission maximum (in Cc1ccccc1) of 577 nm and an emission maximum (in c1cc(-c2cccc(-n3c4ccccc4c4ccccc43)c2)cc(-n2c3ccccc3c3ccccc32)c1) of 540 nm.
`N#Cc1cc(-n2c3ccccc3c3ncccc32)c(-n2c3ccccc3c3ncccc32)cc1C#N` gave an emission maximum (in CC#N) of 520.47 nm, an emission maximum (in CCCCCC) of 443.72 nm and an emission maximum (in Cc1ccccc1) of 450.7 nm. The emission maximum (in ClCCl) was 476.51 nm and the emission maximum [1] was 477.27 nm.
Work on `CCN(C)c1ccc(C2=C3C(C)=CC(/C=C/c4ccc(OCCCN=[N+]=[N-])cc4)=[N+]3[B-](F)(F)n3c(C)cc(C)c32)cc1` yielded an emission maximum (in CO) of 586 nm.
In the case of `c1ccc2c(c1)-c1ccccc1C21c2ccccc2-c2cnccc21`, the emission maximum (in CC1CCCO1) is reported as 318 nm.
